Values of other authors in patent US11167065B2 (EUROCOR TECH GMBH, priority 2009, dated 2021).
Like-named read-outs stand apart in the source and are kept apart here.

- Solubility (in dimethyl sulfoxide (DMSO), methanol, anhydrous ethanol): highly soluble
- Solubility (in water): comparatively poorly soluble
SMILES: CC(=O)O[C@H]1C(=O)[C@@]2(C)[C@H]([C@H](OC(=O)c3ccccc3)[C@]3(O)C[C@H](OC(=O)[C@H](O)[C@@H](NC(=O)c4ccccc4)c4ccccc4)C(C)=C1C3(C)C)[C@]1(OC(C)=O)CO[C@@H]1C[C@@H]2O (relative stereo) [Paclitaxel, [2aR-[2a,4,4a,6,9(R*,S*),11,12,12a,12b]]-(benzoylamino)-hydroxybenzene propionic acid 6,12b-bis-(acetyloxy)-12-(benzoyloxy)-2a-3,4,4a, 5,6,9, 10, 11, 12, 12a, 12b-dodecahydro-4,11-dihydroxy-4a,8,13,13-tetramethyl-5-oxo-7,11-methano-1H-cyclodeca[3,4]benz[1,2-b]oxet-9-yl ester)]
